From patent US11111242B2, “Pyrrolo[2,3-d]pyrimidinyl, pyrrolo[2,3-b]pyrazinyl and pyrrolo[2,3-d]pyridinyl acrylamides” (Pfizer Inc., priority 2013, dated 2021)

The compounds below were run on IL-15 induced P-STAT5 in human PBMC (total lymphocytes) (assay: PBMC IL-15 Induced P-STAT5). Conditions: Homo sapiens, PBMC, IL-15 stimulated, read-out: PBMC IL15-pSTAT5 IC50.
Format: cell-based
Description: PBMC IL-15 Induced P-STAT5
Frozen human PBMC (200-250 million cells/vial) was thawed at 37° C. The cells were transferred to 10 mL warm medium in a 50-mL conical tube, and centrifuged at 1,200 RPM at room temperature for 5 min. The supernatant was aspirated. […] After adding 47 ml D-PBS (37° C.) to PBMC/FBS suspension, centrifuging at 1,200 RPM at room temperature for 5 min, and aspirating the supernatant, the cells were resuspended in 20 mL warm RPMI medium. Ninety μL of cell suspension were pipetted per well in a 96-well, deep-well, V-bottom plate, and the plate was incubated at 37° C. for 30 min. […] After adding 0.8 mL staining buffer per well, the plates were centrifuged at 1,200 RPM (Beckman GS-6R or Sorvall Legend) at room temperature for 5 min, and again the supernatant was aspirated using a 8-channel or 12-channel manifold. The plate was vortexed, and 0.35 mL 90% methanol/10% H2O (−20° C.) was added per well, and the plate incubated on ice for 20 min. After again adding 0.8 mL staining buffer per well, the plates were centrifuged at 1,200 RPM (Beckman GS-6R or Sorvall Legend) at room temperature for 5 min, and again the supernatant was aspirated using a 8-channel or 12-channel manifold, and then 0.8 mL Staining buffer was added per well. After once again adding 0.8 mL staining buffer per well, the plates were centrifuged at 1,200 RPM (Beckman GS-6R or Sorvall Legend) at room temperature for 5 min, and again the supernatant was aspirated using a 8-channel or 12-channel manifold. […] Samples of 250 μL/well were transferred to a 96-well U-bottom plate, and the FACS analysis was performed gating on total lymphocytes. Samples were analyzed using a BD Calibur™ or BD FACSCanto™ flow cytometer equipped with the BD High Throughput Sampler.

In order of falling IC50:
1. C=CC(=O)N1CC(Nc2ncnc3[nH]ccc23)CCC1(C)C (centres unmarked) [Example 67, 1-(5-((7H-Pyrrolo[2,3-d]pyrimidin-4-yl)amino)-2,2-dimethylpiperidin-1-yl)prop-2-en-1-one]  6900 nM
2. C=CC(=O)N1CCC[C@](C)(Nc2ncnc3[nH]ccc23)C1 [Example 70, (S)-1-(3-((7H-Pyrrolo[2,3-d]pyrimidin-4-yl)amino)-3-methylpiperidin-1-yl)prop-2-en-1-one]  5530 nM
3. C=CC(=O)N[C@H]1C[C@@H](Nc2cnc3[nH]cc(C(=O)NC(C)C)c3n2)C1 [Example 184, 2-{[cis-3-(acryloylamino)cyclobutyl]amino}-N-(propan-2-yl)-5H-pyrrolo[2,3-b]pyrazine-7-carboxamide]  3410 nM
4. C=CC(=O)N1CCC[C@@H](Nc2ncnc3[nH]cc(-c4ccc(C(=O)N(C)C)cc4)c23)C1 [Example 27, 4-(4-{[(3R)-1-acryloylpiperidin-3-yl]amino}-7H-pyrrolo[2,3-d]pyrimidin-5-yl)-N,N-dimethylbenzamide]  1870 nM
5. C=CC(=O)N1CCC[C@@H](Nc2nc(Nc3cccnc3)nc3[nH]ccc23)C1 [Example 63, 1-[(3R)-3-{[2-(Pyridin-3-ylamino)-7H-pyrrolo[2,3-d]pyrimidin-4-yl]amino}piperidin-1-yl]prop-2-en-1-one]  1380 nM
6. C=CC(=O)N1CC[C@@H]2CN(c3cnc4[nH]cc(C(=O)NC(C)C)c4n3)C[C@@H]21 [Example 170, 2-[(3aR,6aR)-1-acryloylhexahydropyrrolo[3,4-b]pyrrol-5(1H)-yl]-N-(propan-2-yl)-5H-pyrrolo[2,3-b]pyrazine-7-carboxamide]  1370 nM
7. C=CC(=O)N[C@H]1C[C@H](Nc2cnc3[nH]cc(C(=O)NC(C)C)c3n2)C1 [Example 198, 2-{[trans-3-(acryloylamino)cyclobutyl]amino}-N-(propan-2-yl)-5H-pyrrolo[2,3-b]pyrazine-7-carboxamide]  1170 nM
8. C=CC(=O)N1CCC(Nc2cnc3[nH]cc(-c4ccc(C)nc4)c3n2)CC1 [Example 199, 1-(4-{[7-(6-methylpyridin-3-yl)-5H-pyrrolo[2,3-b]pyrazin-2-yl]amino}piperidin-1-yl)prop-2-en-1-one]  735 nM
9. C=CC(=O)N(C)C1CN(c2cnc3[nH]cc(C(=O)NC(C)C)c3n2)C1 [Example 187, 2-{3-[acryloyl(methyl)amino]azetidin-1-yl}-N-(propan-2-yl)-5H-pyrrolo[2,3-b]pyrazine-7-carboxamide]  710 nM
10. C=C(C(=O)N1CC[C@@H]2CCN(c3ncnc4[nH]ccc34)[C@@H]2C1)C(F)(F)F [Example 41, 1-((3aS,7aS)-1-(7H-Pyrrolo[2,3-d]pyrimidin-4-yl)hexahydro-1H-pyrrolo[2,3-c]pyridin-6(2H)-yl)-2-(trifluoromethyl)prop-2-en-1-one]  446 nM
11. C=CC(=O)N1CCC[C@@H](Nc2ncnc3[nH]cc(-c4cccnc4)c23)C1 [Example 26, 1-[(3R)-3-{[5-(pyridin-3-yl)-7H-pyrrolo[2,3-d]pyrimidin-4-yl]amino}piperidin-1-yl]prop-2-en-1-one]  254 nM
12. C=CC(=O)N1CC[C@H]2CCN(c3ncnc4[nH]ccc34)[C@H]2C1 (racemic) [Example 21, rac-1-((3aR,7aR)-1-(7H-Pyrrolo[2,3-d]pyrimidin-4-yl)hexahydro-1H-pyrrolo[2,3-c]pyridin-6(2H)-yl)prop-2-en-1-one]  236 nM
13. C#Cc1c[nH]c2ncnc(N3CC[C@H]4CCN(C(=O)C=C)C[C@H]43)c12 [Example 48, 1-[(3aS,7aS)-1-(5-ethynyl-7H-pyrrolo[2,3-d]pyrimidin-4-yl)octahydro-6H-pyrrolo[2,3-c]pyridin-6-yl]prop-2-en-1-one]  65.2 nM

Same assay, conditions: IL-15 stimulated, read-out: PBMC IL15-pSTAT5 IC50

In order of rising IC50:
1. C=CC(=O)N1C[C@H](Nc2ncnc3[nH]ccc23)CC[C@@H]1C [Example 5, 1-((2S,5R)-5-((7H-pyrrolo[2,3-d]pyrimidin-4-yl)amino)-2-methylpiperidin-1-yl)prop-2-en-1-one]  51.7 nM
2. C=CC(=O)N1CCC[C@@H](Nc2ncnc3[nH]cc(-c4ccccc4O)c23)C1 [Example 25, 1-[(3R)-3-{[5-(2-hydroxyphenyl)-7H-pyrrolo[2,3-d]pyrimidin-4-yl]amino}piperidin-1-yl]prop-2-en-1-one]  84 nM
3. C=CC(=O)N1CCC[C@@H](Nc2ncnc3[nH]cc(-c4cncc(F)c4)c23)C1 [Example 23, 1-[(3R)-3-{[5-(5-fluoropyridin-3-yl)-7H-pyrrolo[2,3-d]pyrimidin-4-yl]amino}piperidin-1-yl]prop-2-en-1-one]  188 nM
4. C=CC(=O)N1CCC[C@@H](Nc2ncnc3[nH]cc(-c4cncc(OC)c4)c23)C1 [Example 24, 1-[(3R)-3-{[5-(5-methoxypyridin-3-yl)-7H-pyrrolo[2,3-d]pyrimidin-4-yl]amino}piperidin-1-yl]prop-2-en-1-one]  320 nM
5. C=CC(=O)N1CCC[C@@H](Nc2ncnc3[nH]cc(CC#N)c23)C1 [Example 20, (R)-2-(4-((1-Acryloylpiperidin-3-yl)amino)-7H-pyrrolo[2,3-d]pyrimidin-5-yl)acetonitrile]  362 nM
6. C=CC(=O)N1CCC[C@@H](Nc2ncnc3[nH]cc(CCO)c23)C1 [Example 55, (R)-1-(3-((5-(2-Hydroxyethyl)-7H-pyrrolo[2,3-d]pyrimidin-4-yl)amino)piperidin-1-yl)prop-2-en-1-one]  430 nM
7. C=CC(=O)N1CCC[C@@H](Nc2ncnc3[nH]cc(-c4ccc(C(=O)NC(C)C)cc4)c23)C1 [Example 29, 4-(4-{[(3R)-1-acryloylpiperidin-3-yl]amino}-7H-pyrrolo[2,3-d]pyrimidin-5-yl)-N-(propan-2-yl)benzamide]  464 nM
8. C=CC(=O)N1CCC(Nc2cnc3[nH]cc(-c4ccncc4F)c3n2)CC1 [Example 200, 1-(4-{[7-(3-fluoropyridin-4-yl)-5H-pyrrolo[2,3-b]pyrazin-2-yl]amino}piperidin-1-yl)prop-2-en-1-one]  819 nM
9. C=CC(=O)N1CCC(Nc2cnc3[nH]cc(-c4ccc(S(C)(=O)=O)cc4)c3n2)CC1 [Example 203, 1-[4-({7-[4-(methylsulfonyl)phenyl]-5H-pyrrolo[2,3-b]pyrazin-2-yl}amino)piperidin-1-yl]prop-2-en-1-one]  1180 nM
10. C=CC(=O)N1C[C@H](Nc2ncnc3[nH]cc(C(N)=O)c23)CC[C@@H]1C [Example 164, 4-{[(3R,6S)-1-Acryloyl-6-methylpiperidin-3-yl]amino}-7H-pyrrolo[2,3-d]pyrimidine-5-carboxamide]  1650 nM
11. C=CC(=O)N1C[C@@H]2C(Nc3cnc4[nH]cc(C(=O)NC(C)C)c4n3)[C@@H]2C1 (stereo partly drawn) [Example 189, 2-{[(1R,5S,6s)-3-acryloyl-3-azabicyclo[3.1.0]hex-6-yl]amino}-N-(propan-2-yl)-5H-pyrrolo[2,3-b]pyrazine-7-carboxamide]  1740 nM
12. C=CC(=O)N1C[C@H](C)C[C@@H](Nc2ncnc3[nH]ccc23)C1 (racemic) [Example 65, Rac-1-((3R,5R)-3-((7H-Pyrrolo[2,3-d]pyrimidin-4-yl)amino)-5-methylpiperidin-1-yl)prop-2-en-1-one]  3740 nM
13. C=CC(=O)N1C[C@H](Nc2ncnc3[nH]ccc23)C[C@@H](OC)C1 [Example 77, 1-[(3R,5R)-3-Methoxy-5-(7H-pyrrolo[2,3-d]pyrimidin-4-ylamino)piperidin-1-yl]prop-2-en-1-one]  3970 nM
